According to patent publication US20250136578A1 (Kolm Therapeutics Inc., priority 2023, published 2025):

Target: AR / CBP ternary complex (Homo sapiens, UniProt P10275+Q92793)
Assay: Ternary complex formation assay (sandwich ELISA, AR capture, CBP antibody detection) in VCaP cell lysates
Format: cell-based
Details: treated 1.5 hours, rabbit CBP or p300 antibody detection, average, read-out: Average Ternary Complex
Protocol: Black MaxiSorp plates: coat with 50 μL of mouse 1/50 diluted AR antibody (Monoclonal Antibody (AR 441 from Thermo Fisher); diluted in phosphate buffered saline (PBS). Spin the liquid to the bottom of the wells, if necessary. Incubate overnight at 4° C. Next day, wash 3 times with 200 μL of TBST. Block with 200 μL of blocking buffer (5% BSA in TBST) at room temperature for 2 hours (BSA: A4503 or A2153 from Sigma). Wash plates 3 times with TBST. Plates are ready for lysates Preparation of dimerizer treated lysates
Culture cells in 96 wells at 50K VCaP cells/well for at least 3 days. Plate in 5% Omega charcoal stripped FBS in total volume of 200 uL. Treat with bifunctional for 1.5 hours by adding 1 μL of 200× stock in DMSO. Aspirate media/compound. Add and pipet-to-mix 70 μL of 1× AlphaLisa Lysis Buffer to each well (Perkin Elmer, AlphaLISA SureFire Ultra, diluted in water). Pipet up and down when adding lysis buffer to disrupt cells. Let lysis proceed for 30 min at 4° C.
Incubate for 1 hour at room temperature. Flick out the lysates. Wash 3 times with TBST. Add 75 μL of rabbit CBP or p300 antibody to each well (diluted 1:5000 in blocking buffer (5% BSA in TBST). CBP antibody: (D6C5) Rabbit mAb #7389; p300 antibody: (D8Z4E) Rabbit mAb #86377. Incubate overnight at 4° C. Wash 3 times with 300 uL TBST, each time on shaker for 5-10 min. Prepare goat anti-rabbit antibody conjugated to HRP (1/100K dilution in blocking buffer) Invitrogen Catalog number: 32260. Add 75 μL of HRP-conjugated goat anti-rabbit antibody. Incubate at room temperature for 1 hour. Flick out the HRP-antibody mixture. Wash 7-8 times with TBST, each time on shaker for 10 min. Later washes try to overflow the wells so that no residual HRP remains bound to the sides of the well. Prepare and add 75 uL/well of QuantaRed Enhance Chemifluorescent HRP Substrate solution. Immediately read fluorescence on BMG ClarioStar (ex: 570/em 585), and repeat the read in 5 minutes and 15 minutes.

AR / CBP ternary complex, sequence (P10275 whole entry): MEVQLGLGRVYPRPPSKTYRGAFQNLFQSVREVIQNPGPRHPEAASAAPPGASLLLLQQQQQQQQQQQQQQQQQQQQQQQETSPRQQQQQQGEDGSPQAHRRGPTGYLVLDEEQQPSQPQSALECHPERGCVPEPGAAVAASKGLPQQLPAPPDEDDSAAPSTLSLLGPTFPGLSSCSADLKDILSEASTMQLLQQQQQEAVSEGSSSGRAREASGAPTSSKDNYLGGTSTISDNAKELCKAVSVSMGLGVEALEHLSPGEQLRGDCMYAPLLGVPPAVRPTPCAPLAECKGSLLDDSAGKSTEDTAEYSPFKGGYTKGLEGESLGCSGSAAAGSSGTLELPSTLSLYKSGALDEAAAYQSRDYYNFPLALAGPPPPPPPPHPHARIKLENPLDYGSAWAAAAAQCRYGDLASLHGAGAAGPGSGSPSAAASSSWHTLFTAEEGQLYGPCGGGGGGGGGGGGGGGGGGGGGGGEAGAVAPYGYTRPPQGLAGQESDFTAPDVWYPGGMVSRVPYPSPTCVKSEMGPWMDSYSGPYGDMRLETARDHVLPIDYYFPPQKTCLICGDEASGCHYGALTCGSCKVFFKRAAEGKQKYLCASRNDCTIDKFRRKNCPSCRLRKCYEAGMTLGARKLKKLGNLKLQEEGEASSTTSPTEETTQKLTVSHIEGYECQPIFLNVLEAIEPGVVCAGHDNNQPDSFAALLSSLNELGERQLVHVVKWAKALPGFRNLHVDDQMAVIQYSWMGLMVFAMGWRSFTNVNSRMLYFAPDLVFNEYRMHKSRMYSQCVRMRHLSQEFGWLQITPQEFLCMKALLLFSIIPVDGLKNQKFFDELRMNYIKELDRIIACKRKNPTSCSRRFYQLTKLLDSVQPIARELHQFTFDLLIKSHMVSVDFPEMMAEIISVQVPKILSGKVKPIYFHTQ
AR / CBP ternary complex, sequence (Q92793 2-2442): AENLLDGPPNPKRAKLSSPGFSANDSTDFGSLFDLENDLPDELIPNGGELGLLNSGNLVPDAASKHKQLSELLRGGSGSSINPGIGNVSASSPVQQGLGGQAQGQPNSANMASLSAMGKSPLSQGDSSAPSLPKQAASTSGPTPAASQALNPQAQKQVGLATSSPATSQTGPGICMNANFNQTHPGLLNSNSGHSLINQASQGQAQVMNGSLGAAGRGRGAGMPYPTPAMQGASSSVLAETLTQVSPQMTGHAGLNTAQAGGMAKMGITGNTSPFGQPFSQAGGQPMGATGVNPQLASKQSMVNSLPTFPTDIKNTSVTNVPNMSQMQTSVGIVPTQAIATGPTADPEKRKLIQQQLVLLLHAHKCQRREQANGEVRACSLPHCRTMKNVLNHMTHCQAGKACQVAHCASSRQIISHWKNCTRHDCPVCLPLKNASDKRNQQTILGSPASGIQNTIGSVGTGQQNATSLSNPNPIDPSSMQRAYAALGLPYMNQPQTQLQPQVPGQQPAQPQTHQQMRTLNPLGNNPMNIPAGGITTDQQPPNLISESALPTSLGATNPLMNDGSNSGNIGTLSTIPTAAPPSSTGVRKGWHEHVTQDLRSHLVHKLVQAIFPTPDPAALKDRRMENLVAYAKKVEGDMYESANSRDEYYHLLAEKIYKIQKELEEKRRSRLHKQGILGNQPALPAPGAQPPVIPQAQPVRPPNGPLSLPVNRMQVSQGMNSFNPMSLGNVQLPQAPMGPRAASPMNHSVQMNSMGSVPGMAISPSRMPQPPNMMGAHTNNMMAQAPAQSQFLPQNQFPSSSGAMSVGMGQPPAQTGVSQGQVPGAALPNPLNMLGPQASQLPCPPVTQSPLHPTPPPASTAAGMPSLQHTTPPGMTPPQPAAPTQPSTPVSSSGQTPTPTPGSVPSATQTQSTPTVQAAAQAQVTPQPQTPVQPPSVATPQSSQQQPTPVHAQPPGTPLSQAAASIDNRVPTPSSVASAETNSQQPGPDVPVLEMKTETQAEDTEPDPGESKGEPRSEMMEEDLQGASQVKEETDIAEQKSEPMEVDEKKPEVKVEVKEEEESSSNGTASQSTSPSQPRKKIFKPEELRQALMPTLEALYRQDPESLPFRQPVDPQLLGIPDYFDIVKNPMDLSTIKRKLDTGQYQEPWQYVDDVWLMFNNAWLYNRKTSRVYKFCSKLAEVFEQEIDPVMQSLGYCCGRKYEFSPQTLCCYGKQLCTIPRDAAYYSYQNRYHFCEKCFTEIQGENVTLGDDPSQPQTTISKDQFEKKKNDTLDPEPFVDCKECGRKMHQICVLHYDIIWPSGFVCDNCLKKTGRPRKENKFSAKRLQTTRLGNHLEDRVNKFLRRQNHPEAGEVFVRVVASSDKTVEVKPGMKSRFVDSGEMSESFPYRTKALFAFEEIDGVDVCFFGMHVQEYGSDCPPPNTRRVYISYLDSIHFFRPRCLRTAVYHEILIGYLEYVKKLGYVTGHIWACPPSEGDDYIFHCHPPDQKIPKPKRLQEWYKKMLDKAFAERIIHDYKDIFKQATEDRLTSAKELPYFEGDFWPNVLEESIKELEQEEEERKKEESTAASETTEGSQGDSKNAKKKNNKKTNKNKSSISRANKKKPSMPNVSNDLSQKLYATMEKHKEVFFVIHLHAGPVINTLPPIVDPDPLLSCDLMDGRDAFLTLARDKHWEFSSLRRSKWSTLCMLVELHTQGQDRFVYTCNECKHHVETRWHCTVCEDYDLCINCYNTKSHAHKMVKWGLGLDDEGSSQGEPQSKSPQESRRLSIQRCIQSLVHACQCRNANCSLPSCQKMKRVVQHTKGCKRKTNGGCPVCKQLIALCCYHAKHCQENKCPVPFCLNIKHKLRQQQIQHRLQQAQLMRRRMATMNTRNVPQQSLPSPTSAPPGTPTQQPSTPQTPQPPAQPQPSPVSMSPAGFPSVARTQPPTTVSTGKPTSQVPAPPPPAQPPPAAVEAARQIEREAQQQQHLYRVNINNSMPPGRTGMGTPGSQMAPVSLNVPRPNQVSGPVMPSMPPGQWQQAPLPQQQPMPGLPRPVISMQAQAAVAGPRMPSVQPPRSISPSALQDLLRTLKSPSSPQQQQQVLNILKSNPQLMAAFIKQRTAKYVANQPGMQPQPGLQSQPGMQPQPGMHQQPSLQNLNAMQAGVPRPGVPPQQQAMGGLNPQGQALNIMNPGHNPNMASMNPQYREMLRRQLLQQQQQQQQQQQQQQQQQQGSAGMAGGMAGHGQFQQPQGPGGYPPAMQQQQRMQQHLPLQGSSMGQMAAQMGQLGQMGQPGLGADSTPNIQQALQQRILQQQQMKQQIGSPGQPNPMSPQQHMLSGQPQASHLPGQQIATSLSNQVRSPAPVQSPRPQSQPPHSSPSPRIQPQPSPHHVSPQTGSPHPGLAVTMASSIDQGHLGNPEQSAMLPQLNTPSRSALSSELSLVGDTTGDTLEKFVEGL

EC50, < 1 nM:
CC(=O)N1CCc2c(c(N3CCCc4cc(-c5cnn(C)c5)c(C(F)F)cc43)nn2[C@H]2CCC3(CC2)C[C@H](Oc2ccc(C(=O)N[C@H]4CC[C@H](Oc5ccc(C#N)c(Cl)c5)CC4)nn2)C3)C1 (mixture of isomers) [Compound 235, 6-((7-(5-acetyl-3-(7-(difluoromethyl)-6-(1-methyl-1H-pyrazol-4-yl)-3,4-dihydroquinolin-1(2H)-yl)-4,5,6,7-tetrahydro-1H-pyrazolo[4,3-c]pyridin-1-yl)spiro[3.5]nonan-2-yl)oxy)-N-((1SR,4SR)-4-(3-chloro-4-cyanophenoxy)cyclohexyl)pyridazine-3-carboxamide]
CC(=O)N1CCc2c(c(N3CCCc4cc(-c5cnn(C)c5)c(C(F)F)cc43)nn2[C@H]2CCC3(CC2)C[C@H](Oc2ccc(C(=O)N[C@H]4CC[C@H](Oc5ccc(C#N)c(Cl)c5)CC4)nn2)C3)C1 (mixture of isomers) [Compound 301, 6-((7-(5-acetyl-3-(7-(difluoromethyl)-6-(1-methyl-1H-pyrazol-4-yl)-3,4-dihydroquinolin-1(2H)-yl)-4,5,6,7-tetrahydro-1H-pyrazolo[4,3-c]pyridin-1-yl)spiro[3.5]nonan-2-yl)oxy)-N-((1SR,4SR)-4-(3-chloro-4-cyanophenoxy)cyclohexyl)pyridazine-3-carboxamide]
CC(=O)N1CCc2c(c(-c3cccc4cc(-c5cnn(C)c5)ncc34)nn2C2CCN(CC3CCN(c4ncc(C(=O)N[C@H]5CC[C@H](Oc6ccc(C#N)c(Cl)c6)CC5)cn4)CC3)CC2)C1 [Compound 6]
CC(=O)N1CCc2c(c(N3CCCc4cc(-c5cnn(C)c5)ccc43)nn2C2CCN(CC3CCN(c4ncc(C(=O)N[C@H]5CC[C@H](Oc6ccc(C#N)c(Cl)c6)CC5)cn4)CC3)CC2)C1 [Compound 11, 2-[4-[[4-[5-acetyl-3-[6-(1-methylpyrazol-4-yl)-3,4-dihydro-2H-quinolin-1-yl]-6,7-dihydro-4H-pyrazolo[4,3-c]pyridin-1-yl]-1-piperidyl]methyl]-1-piperidyl]-N-[4-(3-chloro-4-cyano-phenoxy)cyclohexyl]pyrimidine-5-carboxamide]
CC(=O)N1CCc2c(c(N3CCCc4cc(-c5cnn(C)c5)c(C(F)F)cc43)nn2C2CCN(CC3CCN(c4ncc(C(=O)N[C@H]5CC[C@H](Oc6ccc(C#N)c(Cl)c6)CC5)cn4)CC3)CC2)C1 [Compound 17, 2-[4-[[4-[5-acetyl-3-[7-(difluoromethyl)-6-(1-methylpyrazol-4-yl)-3,4-dihydro-2H-quinolin-1-yl]-6,7-dihydro-4H-pyrazolo[4,3-c]pyridin-1-yl]-1-piperidyl]methyl]-1-piperidyl]-N-[4-(3-chloro-4-cyano-phenoxy)cyclohexyl]pyrimidine-5-carboxamide]
CC(=O)N1CCc2c(c(-c3cccc4cc(-c5cnn(CCC6CCN(c7ccc(C(=O)N[C@H]8CC[C@H](Oc9ccc(C#N)c(Cl)c9)CC8)nn7)CC6)c5)ncc34)nn2C2CCOCC2)C1 [Compound 24, 6-[4-[2-[4-[8-(5-acetyl-1-tetrahydropyran-4-yl-6,7-dihydro-4H-pyrazolo[4,3-c]pyridin-3-yl)-3-isoquinolyl]pyrazol-1-yl]ethyl]-1-piperidyl]-N-[4-(3-chloro-4-cyano-phenoxy)cyclohexyl]pyridazine-3-carboxamide]
CC(=O)N1CCc2c(c(-c3cccc4cc(-c5cnn(CCN6CCN(c7ccc(C(=O)N[C@H]8CC[C@H](Oc9ccc(C#N)c(Cl)c9)CC8)nn7)CC6)c5)ncc34)nn2C2CCOCC2)C1 [Compound 29, 6-[4-[2-[4-[8-(5-acetyl-1-tetrahydropyran-4-yl-6,7-dihydro-4H-pyrazolo[4,3-c]pyridin-3-yl)-3-isoquinolyl]pyrazol-1-yl]ethyl]piperazin-1-yl]-N-[4-(3-chloro-4-cyano-phenoxy)cyclohexyl]pyridazine-3-carboxamide]
CC(=O)N1CCc2c(c(N3CCCc4cc(-c5cnn(C)c5)c(C(F)F)cc43)nn2C2CCN(CC3(F)CCN(c4ccc(C(=O)N[C@H]5CC[C@H](Oc6ccc(C#N)c(Cl)c6)CC5)nn4)CC3)CC2)C1 [Compound 142, 6-[4-[[4-[5-acetyl-3-[7-(difluoromethyl)-6-(1-methylpyrazol-4-yl)-3,4-dihydro-2H-quinolin-1-yl]-6,7-dihydro-4H-pyrazolo[4,3-c]pyridin-1-yl]-1-piperidyl]methyl]-4-fluoro-1-piperidyl]-N-[4-(3-chloro-4-cyano-phenoxy)cyclohexyl]pyridazine-3-carboxamide]
CC(=O)N1CCc2c(c(N3CCCc4cc(-c5cnn(C)c5)c(C(F)F)cc43)nn2C2CCc3c(cnn3C3CCN(c4ccc(C(=O)N[C@H]5CC[C@H](Oc6ccc(C#N)c(Cl)c6)CC5)nn4)CC3)C2)C1 (some centres unmarked) [Compound 178, 6-[4-[5-[5-acetyl-3-[7-(difluoromethyl)-6-(1-methylpyrazol-4-yl)-3,4-dihydro-2H-quinolin-1-yl]-6,7-dihydro-4H-pyrazolo[4,3-c]pyridin-1-yl]-4,5,6,7-tetrahydroindazol-1-yl]-1-piperidyl]-N-[4-(3-chloro-4-cyano-phenoxy)cyclohexyl]pyridazine-3-carboxamide]
CC(=O)N1CCc2c(c(N3CCCc4cc(-c5ccc(OC6CC7(CCN(c8ccc(C(=O)N[C@H]9CC[C@H](Oc%10ccc(C#N)c(Cl)c%10)CC9)nn8)CC7)C6)cc5)c(C(F)F)cc43)nn2C2CCOCC2)C1 [Compound 203, 6-[2-[4-[1-(5-acetyl-1-tetrahydropyran-4-yl-6,7-dihydro-4H-pyrazolo[4,3-c]pyridin-3-yl)-7-(difluoromethyl)-3,4-dihydro-2H-quinolin-6-yl]phenoxy]-7-azaspiro[3.5]nonan-7-yl]-N-[4-(3-chloro-4-cyano-phenoxy)cyclohexyl]pyridazine-3-carboxamide]
CC(=O)N1CCc2c(c(N3CCCc4cc(-c5ccc(N6CCC(N7CCN(c8ccc(C(=O)N[C@H]9CC[C@H](Oc%10ccc(C#N)c(Cl)c%10)CC9)nn8)CC7)CC6)nc5)c(C(F)F)cc43)nn2C2CCOCC2)C1 [Compound 215]
CC(=O)N1CCc2c(c(N3CCCc4cc(-c5cnn(C)c5)c(C(F)F)cc43)nn2C2CCN(CC3CCN(c4nnc(C(=O)N[C@H]5CC[C@H](Oc6ccc(C#N)c(Cl)c6)CC5)s4)CC3)CC2)C1 [Compound 225]
CC(=O)N1CCc2c(c(N3CCCc4cc(-c5cnn(C)c5)c(C(F)F)cc43)nn2C2CCN(C(=O)C3CCN(c4nnc(C(=O)N[C@H]5CC[C@H](Oc6ccc(C#N)c(Cl)c6)CC5)s4)CC3)CC2)C1 [Compound 226, 5-[4-[4-[5-acetyl-3-[7-(difluoromethyl)-6-(1-methylpyrazol-4-yl)-3,4-dihydro-2H-quinolin-1-yl]-6,7-dihydro-4H-pyrazolo[4,3-c]pyridin-1-yl]piperidine-1-carbonyl]-1-piperidyl]-N-[4-(3-chloro-4-cyano-phenoxy)cyclohexyl]-1,3,4-thiadiazole-2-carboxamide]
CC(=O)N1CCc2c(c(N3CCCc4cc(-c5cnn(C)c5)c(C(F)F)cc43)nn2C2CCN(C3CCC4(C3)CN(c3ccc(C(=O)N[C@H]5CC[C@H](Oc6ccc(C#N)c(Cl)c6)CC5)nn3)C4)CC2)C1 (some centres unmarked) [Compound 227, 6-[6-[4-[5-acetyl-3-[7-(difluoromethyl)-6-(1-methylpyrazol-4-yl)-3,4-dihydro-2H-quinolin-1-yl]-6,7-dihydro-4H-pyrazolo[4,3-c]pyridin-1-yl]-1-piperidyl]-2-azaspiro[3.4]octan-2-yl]-N-[4-(3-chloro-4-cyano-phenoxy)cyclohexyl]pyridazine-3-carboxamide]
